The source of these data is PubChem BioAssay (NCI).

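Grown in 96-well plates, cells were treated for 48 hours with each compound at five concentrations. Insufficient inhibition: endpoint recorded as highest concentration tested. Abbreviation: GI50, concentration required for 50% inhibition of growth. TGI marks complete inhibition of growth.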

Some test systems named below: A498 renal; CAKI-1 renal; HCC-2998 colon; HOP-62 NSCLC; NCI-H460 lung; OVCAR-5 ovarian; SK-OV-3 ovarian; U251 CNS; UACC-62 melanoma; UO-31 renal.
Holding throughout (experiment): inhibition of tumour cell growth, NCI panel, 48 h

In the case of `COc1cc(C2C3=C(COC3=O)Nc3c2ccc2c3CCCC2)cc2c1OCO2` (stereo not drawn), the GI50 was 0.0265 µM in the assay on A498 renal; 0.0775 µM in the assay on CAKI-1 renal; 0.052 µM with HCC-2998 colon; 0.0426 µM in the assay with HOP-62 NSCLC; 0.0353 µM with NCI-H460 lung; 0.0897 µM with OVCAR-5 ovarian. Also, the GI50 with SK-OV-3 ovarian is 0.0311 µM; in the assay on U251 CNS, 0.0418 µM; in the assay with UACC-62 melanoma, 0.0462 µM; in the assay with UO-31 renal, 0.337 µM. The TGI in the assay with A498 renal is 0.175 µM; with CAKI-1 renal, over 100 µM; with HOP-62 NSCLC it was 18.7 µM; in the assay with NCI-H460 lung, 15.7 µM; with OVCAR-5 ovarian, over 100 µM; in the assay with SK-OV-3 ovarian, 0.103 µM. For the same compound, the TGI in the assay on U251 CNS was 14.9 µM; in the assay with UACC-62 melanoma it was over 100 µM; in the assay on UO-31 renal it was over 100 µM.

Turning to `C=CC1(NS(=O)(=O)c2ccc(C)cc2)CCC(C(C)(C)C)CC1` (stereo not drawn), the TGI in the assay with A498 renal, in the assay on CAKI-1 renal, with HCC-2998 colon, in the assay on HOP-62 NSCLC, in the assay on NCI-H460 lung and in the assay on SK-OV-3 ovarian was over 100 µM throughout. Moreover, the TGI with U251 CNS, with UACC-62 melanoma and with UO-31 renal was over 100 µM each time.

For `COc1ccc(-c2cc(-c3cc(Cl)cc(Br)c3O)[nH]c(=O)n2)cc1`, the TGI with A498 renal is 31.4 µM; in the assay with CAKI-1 renal, 37.2 µM; with HCC-2998 colon, 45.5 µM; in the assay on HOP-62 NSCLC it was 28.1 µM; in the assay with NCI-H460 lung it was 34.6 µM; in the assay on SK-OV-3 ovarian, 38.8 µM. Further, the results for the TGI in the assay on U251 CNS, in the assay with UACC-62 melanoma and in the assay with UO-31 renal were 31.3 µM, 29.4 µM and 34.7 µM, respectively.

For `Cc1cc(N2CCCC2)nc(NCc2cc(Nc3ccnc4cc(Cl)ccc34)ccc2F)n1`, the GI50 was 1.04 µM in the assay on A498 renal; 1.38 µM in the assay with CAKI-1 renal; 1.13 µM in the assay on HCC-2998 colon; 1.46 µM in the assay with HOP-62 NSCLC; 1.23 µM in the assay with NCI-H460 lung; 2.04 µM in the assay with SK-OV-3 ovarian. The GI50 is 1.5 µM in the assay on U251 CNS and 1.21 µM in the assay with UO-31 renal. The TGI was 2.54 µM in the assay on A498 renal; 2.86 µM in the assay with CAKI-1 renal; 2.45 µM in the assay with HCC-2998 colon; 3.14 µM with HOP-62 NSCLC; 2.86 µM in the assay on NCI-H460 lung; 3.89 µM in the assay on SK-OV-3 ovarian. Further, the TGI in the assay on U251 CNS was 2.84 µM; in the assay with UO-31 renal, 2.66 µM.

`CC(/C=C/c1ccccc1)=N\NC(N)=S`: the TGI in the assay with A498 renal was 44.5 µM; in the assay on CAKI-1 renal, over 100 µM; in the assay on HCC-2998 colon, 79.1 µM; in the assay with HOP-62 NSCLC it was over 100 µM; in the assay with NCI-H460 lung, over 100 µM; in the assay on OVCAR-5 ovarian, over 100 µM. For the same compound, the TGI with SK-OV-3 ovarian, with U251 CNS and in the assay on UO-31 renal was over 100 µM in each case.

`Cc1ccc(C2=C(c3ccccc3)C(c3ccccc3)Oc3ccc(C)cc32)cc1` (stereo not drawn): the GI50 in the assay on A498 renal was 1.56 µM; in the assay with CAKI-1 renal it was 12.7 µM; with HCC-2998 colon, 1.64 µM; in the assay on HOP-62 NSCLC, 3.09 µM; in the assay with NCI-H460 lung, 7.1 µM; in the assay with OVCAR-5 ovarian, 2.87 µM. The results for the GI50 in the assay on U251 CNS, with UACC-62 melanoma and in the assay with UO-31 renal were 14.8 µM, 10 µM and 4.37 µM, respectively. The TGI in the assay on A498 renal was 5.32 µM; with CAKI-1 renal it was 31.4 µM; with HCC-2998 colon, 3.1 µM; in the assay on HOP-62 NSCLC, 7.71 µM; in the assay with NCI-H460 lung it was 39.9 µM; with OVCAR-5 ovarian, 8.64 µM. For the same compound, the TGI in the assay on U251 CNS was determined as 28.5 µM; in the assay with UACC-62 melanoma, 22.8 µM; with UO-31 renal, 17 µM.

Turning to `OCCNCCCOc1ccc2ncnc(Nc3ccc(Oc4cccc(C(F)(F)F)c4)c(Cl)c3)c2c1`, the GI50 in the assay on A498 renal was 1.72 µM; in the assay with CAKI-1 renal it was 2.99 µM; in the assay with HCC-2998 colon, 1.64 µM; in the assay with NCI-H460 lung, 1.73 µM; in the assay on OVCAR-5 ovarian it was 1.65 µM; in the assay on UACC-62 melanoma it was 1.79 µM. Further, the GI50 in the assay on UO-31 renal was 1.29 µM. The TGI turned out to be 5.29 µM with A498 renal; 11.6 µM in the assay with CAKI-1 renal; 3.1 µM in the assay with HCC-2998 colon; 3.31 µM with NCI-H460 lung; 3.24 µM with OVCAR-5 ovarian; 3.31 µM in the assay on UACC-62 melanoma. The compound also showed a TGI with UO-31 renal of 2.57 µM.

Take `O=C1Nc2ccccc2/C1=C\c1nc(C2CCN(S(=O)(=O)c3ccc(F)cc3)CC2)n2ccccc12`: the GI50 in the assay on A498 renal is 17.1 µM; in the assay on CAKI-1 renal, 1.73 µM; with HCC-2998 colon, over 100 µM; in the assay with HOP-62 NSCLC, 2.06 µM; with NCI-H460 lung it was 9.97 µM; in the assay with OVCAR-5 ovarian, 5.16 µM. For the same compound, the GI50 in the assay with SK-OV-3 ovarian is 4.96 µM; in the assay with U251 CNS, 2.53 µM. In addition, the TGI is over 100 µM with A498 renal; over 100 µM in the assay on CAKI-1 renal; over 100 µM in the assay with HCC-2998 colon; 6.37 µM in the assay on HOP-62 NSCLC; over 100 µM in the assay with NCI-H460 lung; over 100 µM with OVCAR-5 ovarian. Also, the TGI with SK-OV-3 ovarian is over 100 µM; in the assay with U251 CNS it was 11.4 µM.

On to `CNS(=O)(=O)NN(C)S(=O)(=O)c1ccc2ccccc2c1`, for which the TGI in the assay with A498 renal, in the assay with CAKI-1 renal, in the assay on HCC-2998 colon, in the assay with HOP-62 NSCLC, in the assay with SK-OV-3 ovarian and in the assay with U251 CNS was over 100 µM in each case. The TGI with UACC-62 melanoma and with UO-31 renal was over 100 µM throughout.
